The subject of assay [1] is hRAS1 (DNA, G4) TCGGGTTGCGGGCGCAGGGCACGGGCG
The assay can be described thus: ESI-MS. Particulars: K+ 1 mM; 100 mM TMAA, 50% methanol; 20 μM strand.

For assay [2], the system named is ODN-51 (DNA, G4) TAGGGTTAGGGTTAGGGTTAGGG
The assay can be described thus: ESI-MS. Particulars: K+ 1 mM; 100 mM TMAA, 50% methanol; 20 μM strand.

Assay [3] deals with NRAS (RNA, G4) UGUGGGAGGGGCGGGUCUGGG
The assay can be described thus: CD melting. Particulars: K+ 100 mM; 10 mM Tris, pH 7.4; NRAS 5 μM; TPE-B : G4 1:1.

Assay [4] has as its system hRAS1 (DNA, G4) TCGGGTTGCGGGCGCAGGGCACGGGCG
The assay can be described thus: CD melting. Particulars: K+ 100 mM; 10 mM Tris, pH 7.4; G4 15 μM; TPE-B : G4 1:1.

Here are results for one compound from publication PMC9109478 (2022).

Molecules are shown by their SMILES.

Take `CN(C)c1cc[n+](CCCCOc2ccc(C(=C(c3ccc(OCCCC[n+]4ccc(N(C)C)cc4)cc3)c3ccc(OCCCC[n+]4ccc(N(C)C)cc4)cc3)c3ccc(OCCCC[n+]4ccc(N(C)C)cc4)cc3)cc2)cc1`: the binding entry in assay [1] and in assay [2] was “weak” in each case. Besides, the ΔTm (in general, the shift of the melting midpoint relative to a reference) is 13.51 °C in assay [3] and 0.07 °C in assay [4].
